Here are results for one compound from patent US10052304B2, “Compositions and methods for cancer therapy” (UNIVERSITY OF IOWA RESEARCH FOUNDATION, priority 2015, dated 2018).

Data set [1] relates to NCI-H292 xenografts. As to the method:
Nude mice were injected with NCI-H292 cells into their flanks and tumors grown to a diameter of 2-4 mm.
Female 4-6 week old female athymic-nu/nu mice were purchased from Envigo (previously Harlan Laboratories) and housed in the Animal Care Facility at the University of Iowa (Iowa City, Iowa), and all procedures were approved by the University of Iowa Institutional Animal Care and Use Committee and conformed to NIH guidelines. 1×10^6 H292 or U87 cells were injected subcutaneously into the right rear flank and mice were euthanized and sacrificed when tumor length exceeded 1.5 cm in any dimension. Treatment regimens were as described in the text and are summarized in the Supplemental Experimental Procedures.
Female 4-6 week old female athymic-nu/nu mice were purchased from Envigo (previously Harlan Laboratories) and housed in the Animal Care Facility at the University of Iowa (Iowa City, Iowa), and all procedures were approved by the University of Iowa Institutional Animal Care and Use Committee and conformed to NIH guidelines. 1×10^6 H292 or U87 cells were injected subcutaneously into the right rear flank. […] Tumors were measured every other day with Vernier calipers (volume=(length×width×(width/2)) and mice were euthanized and sacrificed when tumor length exceeded 1.5 cm in any dimension.

Data set [2] deals with ETC complex I. Briefly: ETC complex I activity after ascorbate exposure. The class given is cell-based, human. As to conditions: 15 pmol cell^−1 ascorbate for 1 h, NSCLC cell lysates. As for the experimental part: Exponentially growing cells were scraped and frozen as dry pellets until assayed for total activity. Aconitase activity was measured as the rate of appearance of NADPH (at 340 nm; Beckman DU 800 spectrophotometer, Brea, Calif.) for 45 min during the reaction of 200 μg total sample protein with 200 μM NADP^+ and 10 U isocitrate dehydrogenase as previously described (Case et al., 2011). Maximal ETC complex activity was measured as previously described (Birch-Machin et al., 1994). Complex I activity was quantified as the rate of rotenone-inhibitable NADH oxidation (320 nm; c=6.22 mM^−1 cm^−1). Complex II activity as the difference in the rate of DCIP reduction in the presence and absence of succinate (at 600 nm; ε=19.1 mM^−1 cm^−1). Complex IV activity was assayed as the rate of oxidation of cytochrome c ([…]; ε=19.6 mM^−1 cm^−1). Rates of activities were normalized to total protein by Lowry.
Exponentially growing cells were scraped and frozen as dry pellets until assayed for protein content (Lowry) and maximal ETC complex activity as previously described (Birch-Machin et al., 1994). Briefly, dry cell pellets were resuspended in 20 mM potassium phosphate buffer and sonicated 3×10 s each. Rates of activities were normalized to total protein. Complex I activity was quantified as the rate of rotenone-inhibitable NADH oxidation (320 nm; ε=6.22 mM-1 cm-1). […]

In data set [3] the test system is OCI-MY5. Kind of data set: Colony formation on soft agar, OCI-MY5 myeloma cells. The class given is cell-based, human. The following applies: 1 h treatment, colonies after 10-14 days. The text has this: A two-layer agar system was used, and colonies were visualized after 10-14 days.
For data set [4], the system named is ARP1 myeloma cells. Kind of data set: Luciferase-labeled ARP1 myeloma xenograft, intravenous injection, NOD-SCID mice. The class given is in vivo. As to conditions: ascorbate 4 g/kg daily. The text has this:
The first model used is a luciferase labeled human myeloma cell line ARP1.

Data set [5] has as its system GBM cells. Briefly: Cellular labile iron pool (Calcein-AM flow cytometry), GBM cells. The class given is cell-based, human. The following applies: increasing doses of ascorbate. As for the experimental part:
The labile iron pool (LIP) was visualized using the fluorescent dye Calcein-AM as previously described (Epsztejn et al., 1997) with modifications. After labeling, samples were divided into two flow cytometry sample tubes, to which 100 μM 2′,2′-bipyridyl (BIP) was added to one tube and analyzed by flow cytometry. BIP tubes were incubated for at least 15 minutes before analysis to allow for full chelation of intracellular labile iron. The LIP (A.U.)=MFIBIP−MFINoBIP was normalized against the control samples to calculate the relative labile iron pool.
The labile iron pool (LIP) was visualized using the fluorescent dye Calcein-AM as previously described with modifications (Epsztejn et al., 1997). Briefly, after sample treatment, cells were trypsinized, spun at 1,200 rpm for 5 min, and resuspended at approximately 1×10^6 cells mL-1 in 500 nM Calcein-AM in PBS. Samples were incubated for 15 min at 4% O2 in a humidity controlled environment (37° C., 5% CO2). Subsequently, samples were pelleted, washed in PBS, and resuspended in 1 mL PBS before dividing each sample into two flow cytometry sample tubes, to which 100 μM 2′,2′-bipyridyl (BIP) was added to one tube. Samples were kept at room temperature and analyzed on a LSR II Flow Cytometer (BD Biosciences; λex=488 nm, λem=515/20 nm). […]

SMILES strings stand for the structures. Where only a bound is given, the exact number is not on record here.

For `O=C1O[C@H]([C@@H](O)CO)C(O)=C1O` [ascorbate, L-ascorbic acid], the “survival of xenograft-bearing mice” value in data set [1] (Example 1: ascorbate 4 g/kg IP daily + 12 Gy/6fx IR + weekly 15 mg/kg carboplatin vs chemo-radiation alone) was “survived significantly longer”. Also, the “tolerability (lack of weight loss)” value in data set [1] (Example 1: ascorbate 4 g/kg IP daily, alone or with chemo-radiation) is “well-tolerated”. For the same compound, the “tolerability (mouse weight)” value in data set [1] (Example 4: ascorbate 4 g kg^−1 IP daily) is on record as “well tolerated”. Besides, the overall survival entry in data set [1] (Example 4: ascorbate 4 g kg^−1 IP daily + 12 Gy IR/2 fractions + weekly 15 mg kg^−1 CPL) is “significantly increased overall survival”. Also, the “ETC complex I activity” value in data set [2] is “inactivation”. Moreover, the “ascorbate dose giving complete growth inhibition (colony formation)” value in data set [3] is not below 10 pmol/cell. Besides, the tumor growth rate entry in data set [4] is recorded as “significantly decreased tumor growth rate”. Besides, in data set [4] (approximately 15 days), the “decrease of mean tumor fluorescent intensity vs control” value is listed as 59%. In addition, the “cellular LIP after ascorbate” value in data set [5] is “significant dose-dependent ascorbate-induced increases in cellular LIP”.
